Changes are numbered by the printed parent chain. “And” between values parts separate entries of the source, which are not always exact repeats. Equal entries are not always repeated.
Tests used:
TREK-2 = target: T1, TREK-2 (Mus musculus, UniProt Q8BUW1); experiment: TEVC in Xenopus oocytes; type: cell-based; details: Fold-activation at 20 uM in oocytes
T1 construct: expressed in transfected cells; host or cells: Xenopus laevis oocytes injected with mRNA
T1 sequence (Q8BUW1 with tags, fused parts or gaps): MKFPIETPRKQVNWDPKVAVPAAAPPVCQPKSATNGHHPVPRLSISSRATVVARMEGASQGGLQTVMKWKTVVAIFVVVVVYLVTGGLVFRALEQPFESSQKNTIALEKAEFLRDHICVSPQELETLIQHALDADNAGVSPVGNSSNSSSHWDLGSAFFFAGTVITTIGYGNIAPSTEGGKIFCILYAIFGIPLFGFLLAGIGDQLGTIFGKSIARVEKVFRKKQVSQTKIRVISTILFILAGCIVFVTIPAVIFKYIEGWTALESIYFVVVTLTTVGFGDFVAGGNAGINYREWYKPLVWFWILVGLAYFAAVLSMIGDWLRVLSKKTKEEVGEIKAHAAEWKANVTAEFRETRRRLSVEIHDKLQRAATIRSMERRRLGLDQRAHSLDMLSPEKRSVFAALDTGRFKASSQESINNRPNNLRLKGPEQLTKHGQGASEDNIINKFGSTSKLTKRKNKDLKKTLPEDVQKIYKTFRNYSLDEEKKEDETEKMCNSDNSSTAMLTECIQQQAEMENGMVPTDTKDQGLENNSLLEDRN
Excerpt: (§1) Mouse K2P2.1 (TREK-1) (Genbank accession number: NP_034737.2), mouse K2P10.1 (TREK-2) (NM_001316665.1), mouse K2P4.1 (TRAAK) (NM_008431.3), human K2P4.1 (TRAAK) (NM_033310.2) and mouse K2P18.1(TRESK) (NM_207261.3) were used for this study. Point mutations were introduced by site-directed mutagenesis using custom primers and confirmed by sequencing before use. For studies using Xenopus oocytes, K2P channels were subcloned into a previously reported pGEMHE/pMO vector (46). For expression in HEK293 cells, mouse K2P2.1 (TREK-1) and mutants were expressed from a previously described pIRES2-EGFP vector in HEK293 cells (46,47). K2P2.1 (TREK-1) tandems were constructed by connecting the open reading frames for the individual subunits with a linker encoding the […] (SEQ ID NO: 19) sequence. Tandems used for HEK293 cells included an N-terminal HA tag ([…] (SEQ ID NO: 20)) on the first subunit.
(§2) Xenopus laevis oocytes were harvested according to UCSF IACUC Protocol AN129690 and digested using collagenase (Worthington Biochemical Corporation, #LS004183, 0.8-1.0 mg/mL) in Ca^21-free ND96 (96 mM NaCl, 2 mM KCl, 3.8 mM MgCl2, 5 mM HEPES pH 7.4) immediately post-harvest, as previously reported (31,33). Oocytes were maintained at 18° C. in ND96 (96 mM NaCl, 2 mM KCl, 1.8 mM CaCl2, 2 mM MgCl2, 5 mM HEPES pH 7.4) supplemented with antibiotics (100 units mL^−1 penicillin, 100 μg mL^−1 streptomycin, 50 μg mL^−1 gentimycin) and used for experiments within one week of harvest.
(§3) Defolliculated stage V-VI oocytes were microinjected with 0.5-36 ng mRNA and currents were recorded within 16-48 h hours of injection.
(§4) For recordings, oocytes were impaled with borosilicate recording microelectrodes (0.4-2.0 MΩ resistance) backfilled with 3 M KCl and were subjected to constant perfusion of ND96 at a rate of 3 ml min^−1. Recording solutions containing K2P activators were prepared immediately prior to use from DMSO stocks (20-100 mM), with final DMSO concentrations of 0.1%. Currents were evoked from a −80 mV holding potential followed by a 300 ms ramp from −150 mV to +50 mV. Data were recorded using a GeneClamp 500B amplifier (MDS Analytical Technologies) controlled by pCLAMP8 software (Molecular Devices), and digitized at 1 kHz using Digidata 1332 Å digitizer (MDS Analytical Technologies). For each recording, control solution (ND96) was perfused over a single oocyte until current was stable before switching to solutions containing the test compounds at various concentrations. Representative traces and dose response plots were generated in GraphPad Prism 9.

[1] = target: T2, TREK-1^CG* (K2P2.1 (TREK-1) S131C) (Mus musculus, UniProt P97438, S146C); experiment: TEVC in Xenopus oocytes; type: cell-based; details: Fold-activation at 20 uM in oocytes
T2 construct: expressed in transfected cells; host or cells: Xenopus laevis oocytes injected with mRNA
T2 sequence (P97438 1-411 isoform P97438-2 S131C): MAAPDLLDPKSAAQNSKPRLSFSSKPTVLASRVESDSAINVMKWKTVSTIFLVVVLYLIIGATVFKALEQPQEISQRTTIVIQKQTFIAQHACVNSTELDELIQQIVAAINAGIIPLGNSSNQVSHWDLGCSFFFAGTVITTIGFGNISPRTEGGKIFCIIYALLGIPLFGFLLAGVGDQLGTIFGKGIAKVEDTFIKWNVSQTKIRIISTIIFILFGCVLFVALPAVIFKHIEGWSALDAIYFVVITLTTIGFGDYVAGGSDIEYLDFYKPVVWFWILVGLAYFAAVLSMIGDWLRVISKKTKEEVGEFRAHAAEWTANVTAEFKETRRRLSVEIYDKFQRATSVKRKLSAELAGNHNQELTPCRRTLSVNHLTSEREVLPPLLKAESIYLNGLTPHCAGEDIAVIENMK
Excerpt: as §1, §2, §3, §4

K2P10.1 (TREK-2)^CG* = target: T3, K2P10.1 (TREK-2)^CG* (Mus musculus, UniProt Q8BUW1, S153C); experiment: TEVC in Xenopus oocytes; type: cell-based; details: Fold-activation at 20 uM in oocytes
T3 construct: Modified TREK-2 from Mus musculus; expressed in transfected cells; host or cells: Xenopus laevis oocytes injected with mRNA
T3 sequence (Q8BUW1 with tags, fused parts or gaps S153C): T1 sequence (Q8BUW1 with tags, fused parts or gaps) with S156C
Excerpt: as §1, §2, §3, §4

K2P2.1 (TREK-1) = target: T4, K2P2.1 (TREK-1) (Mus musculus, UniProt P97438); experiment: Two-electrode voltage clamp (TEVC) in Xenopus oocytes; type: cell-based; details: for TREK-1 activity class: Fold-activation at 20 uM in oocytes
T4 construct: expressed in transfected cells; host or cells: Xenopus laevis oocytes injected with mRNA (pGEMHE/pMO vector)
T4 sequence (P97438 1-411 isoform P97438-2): T2 sequence (P97438 1-411 isoform P97438-2 S131C) with C131S
Excerpt: as §1, §2, §3, §4

K2P2.1 (TREK-1) S131A = target: T5, K2P2.1 (TREK-1) S131A (Mus musculus, UniProt P97438, S146A); experiment: TEVC in Xenopus oocytes; type: cell-based; details: 20 μM, 0 mV
T5 construct: expressed in transfected cells; host or cells: Xenopus laevis oocytes injected with mRNA
T5 sequence (P97438 1-411 isoform P97438-2 S131A): T2 sequence (P97438 1-411 isoform P97438-2 S131C) with C131A
Excerpt: as §1, §2, §3, §4

[2] = Solubility in aqueous solutions (crystallization sample preparation); type: physicochemical
Experimental: K2P2.1cryst ML335 and ML402 complex crystals grew in the same conditions as K2P2.1cyst, but the protein was incubated for at least 1 h with 2.5 mM of activator before setting the crystal plates. […] Then each compound was diluted 1:100 in SEC buffer to 5 mM concentration, giving a milky solution. This solution was mixed 1:1 to K2P2.1cryst previously concentrated to 12 mg ml^−1. […] The samples were briefly centrifuged in a table-top centrifuge (10,000 g) to remove any insoluble material before setting the crystal plates.

K2P4.1 (TRAAK) = target: T6, K2P4.1 (TRAAK) (Homo sapiens, UniProt Q9NYG8); details: previous studies; cited from earlier work
T6 sequence (Q9NYG8 1-393): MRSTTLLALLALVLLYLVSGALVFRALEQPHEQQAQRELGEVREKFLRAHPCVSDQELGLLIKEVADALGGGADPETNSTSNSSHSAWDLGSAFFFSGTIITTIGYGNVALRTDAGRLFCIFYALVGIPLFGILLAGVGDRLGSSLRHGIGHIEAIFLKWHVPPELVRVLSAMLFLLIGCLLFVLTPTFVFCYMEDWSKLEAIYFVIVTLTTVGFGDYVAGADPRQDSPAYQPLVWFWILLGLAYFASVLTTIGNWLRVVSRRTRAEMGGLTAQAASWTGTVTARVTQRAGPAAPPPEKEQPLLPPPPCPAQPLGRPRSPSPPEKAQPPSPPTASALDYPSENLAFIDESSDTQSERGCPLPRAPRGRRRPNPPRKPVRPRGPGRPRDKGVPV

| Compound | TREK-2 activity class (TREK-2) | TREK-1 GC activity class [1] | TREK-2 GC activity class (K2P10.1 (TREK-2)^CG*) | TREK-1 activity class (K2P2.1 (TREK-1)) | also measured |
| --- | --- | --- | --- | --- | --- |
| CC1=CC(=O)N(c2ccc(C(=O)NCc3ccc(Cl)cc3Cl)cc2)C1=O [Entry 15] | + (1.5-2.5 fold) | +++ (>5 fold) | +++ (>5 fold) | + (1.5-2.5 fold) |  |
| O=C(NCc1ccc(Cl)cc1Cl)c1ccc(N2C(=O)C=CC2=O)cc1 [Entry 16] | + (1.5-2.5 fold) | +++ (>5 fold) | +++ (>5 fold) | + (1.5-2.5 fold) |  |
| CC1=C(C)C(=O)N(c2ccc(C(=O)NCc3ccc(Cl)cc3Cl)cc2)C1=O [Entry 20] |  | ++ (2.5-5 fold) | + (1.5-2.5 fold) |  |  |
| C=CC(=O)Nc1ccc(C(=O)NCc2ccc(Cl)cc2Cl)cc1 [ML336] |  |  |  |  | Fold-activation (I activator/I control) (K2P2.1 (TREK-1) S131A): 16.1 (FIG. 1) fold; Reversibility of activation on washout (K2P2.1 (TREK-1); 20 μM, Xenopus oocytes): sustained following washout; Fold-activation (I activator/I control) (K2P2.1 (TREK-1); 20 μM, currents at 0 mV, Xenopus oocytes): 10+1.0 fold and 10.0 (FIG. 1) fold |
| Cc1cc(Cl)ccc1OCCNC(=O)c1cccs1 [ML402] |  |  |  |  | Solubility in aqueous solutions [2]: insoluble in aqueous solutions; Sensitivity of channel to activator (K2P4.1 (TRAAK)): insensitive |

— US20260098008A1, “COVALENT, CHEMOGENETIC ACTIVATORS FOR K2P POTASSIUM CHANNELS AND USES THEREOF” (THE REGENTS OF THE UNIVERSITY OF CALIFORNIA, priority 2022, published 2026)
